For orientation: IC50 means the concentration that gives 50% inhibition.

For experiment [1], the system named is T-cell. Nature of the experiment: IL-2 secretion from T-cells stimulated with anti-CD3 antibody alone (Biological Example 2). The class given is cell-based. The settings on record: primary human total T-cells, read-out: IL-2 secretion, Anti-CD3 stimulation, fold change over baseline; for fold induction at 1 µM: 1 μM compound; for fold induction at 8 µM: 8 μM compound.

The target in experiment [2] is T1, Cbl-b (Homo sapiens, UniProt Q13191). Kind of experiment: Cbl-b inhibition assay (Cbl-b activity assay, FRET, Biological Example 1; 100 mM NaCl, 60 nM Src kinase). In kind it is biochemical. The settings on record: upper bound stated in text lists; read-out: IC50 values in the Cbl-b inhibition assay of Biological Example 1. The essentials:
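Inhibitor activity is measured as reduced terbium-to-fluorescein FRET between streptavidin-terbium on biotinylated Cbl-b and Bodipy-fluorescein ubiquitin carried by an irreversible UbcH5B-Ub conjugate, binding of which depends on Src phosphorylation of Cbl-b.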

For experiment [3], the system named is T-cell. Nature of the experiment: CD25 cell surface staining on T-cells stimulated with anti-CD3 antibody alone (Biological Example 2). The class given is cell-based. The settings on record: primary human total T-cells, baseline = anti-CD3/anti-CD28 stimulated cells without inhibitor, read-out: CD25 staining, Anti-CD3 stimulation, fold change over baseline; for fold induction at 1 µM: 1 μM compound; for fold induction at 8 µM: 8 μM compound.

The subject of experiment [4] is T-cell. Nature of the experiment: CD25 cell surface staining on T-cells co-stimulated with anti-CD3 and anti-CD28 antibody (Biological Example 2). In kind it is cell-based, human. The settings on record: Homo sapiens, T-cell, primary human total T-cells, baseline = anti-CD3/anti-CD28 stimulated cells without inhibitor, read-out: CD25 staining, Anti-CD3/Anti-CD28 stimulation, fold change over baseline; for fold induction at 0.3 µM: 0.3 μM compound; for fold induction at 1 µM: 1 μM compound; for fold induction at 4 µM: 4 μM compound. Summed up:
(§1)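 No assay protocol given; T-cells stimulated with anti-CD3 alone or anti-CD3 plus anti-CD28, with or without Cbl-b inhibitor. Activation read as IL-2 secretion or CD25 surface staining, expressed as fold over baseline from uninhibited cells […].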

In experiment [5] the target is T1, Cbl-b. Kind of experiment: Cbl-b activity assay (Cbl-b inhibition assay), TR-FRET of Cbl-b interaction with UbcH5B-Ub. The class given is biochemical. The settings on record: assay buffer with 100 mM NaCl, 60 nM Src kinase; read-out: Cbl-b activity IC50. Summed up: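 TR-FRET readout of Cbl-b binding to Bodipy-fluorescein N-terminally labeled Ub conjugated to UbcH5B C85K, measured with compound present. After compound incubation, 60 nM Src kinase with 1 mM ATP and 5 mM MgCl2 (final) was added for 1.5 h, then a further 1 h incubation; asterisked values used 50 mM NaCl buffer and 30 nM Src.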
In general terms: Time-resolved FRET reads energy transfer from a long-lived donor to a nearby acceptor.

The subject of experiment [6] is T-cell. Kind of experiment: IL-2 secretion from T-cells co-stimulated with anti-CD3 and anti-CD28 antibody (Biological Example 2). The class given is cell-based, human. The settings on record: Homo sapiens, T-cell, primary human total T-cells, baseline = anti-CD3/anti-CD28 stimulated cells without inhibitor, read-out: IL-2 secretion, Anti-CD3/Anti-CD28 stimulation, fold change over baseline; for fold induction at 0.3 µM: 0.3 μM compound; for fold induction at 1 µM: 1 μM compound; for fold induction at 4 µM: 4 μM compound. Summed up:
as §1

T1 sequence (Q13191 36-427): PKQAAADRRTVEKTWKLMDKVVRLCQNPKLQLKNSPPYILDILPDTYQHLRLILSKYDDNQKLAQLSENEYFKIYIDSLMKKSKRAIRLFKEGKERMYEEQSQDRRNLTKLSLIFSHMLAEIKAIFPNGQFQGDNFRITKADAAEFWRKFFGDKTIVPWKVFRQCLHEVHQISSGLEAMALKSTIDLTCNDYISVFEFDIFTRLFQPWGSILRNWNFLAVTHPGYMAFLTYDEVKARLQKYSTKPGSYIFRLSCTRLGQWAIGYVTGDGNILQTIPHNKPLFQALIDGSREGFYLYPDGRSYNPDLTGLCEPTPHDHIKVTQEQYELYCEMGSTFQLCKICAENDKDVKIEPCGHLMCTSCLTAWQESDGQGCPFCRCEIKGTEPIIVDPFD

Regarding `Cn1cnnc1CC1(c2cccc(N3Cc4c(cc(CN5CC(C#N)C5)cc4C(F)(F)F)C3=O)c2)COC1` [Compound 423, 1-((2-(3-(3-((4-methyl-4H-1,2,4-triazol-3-yl)methyl)oxetan-3-yl)phenyl)-3-oxo-7-(trifluoromethyl)isoindolin-5-yl)methyl)azetidine-3-carbonitrile], the fold induction at 1 µM in the experiment on T-cell [1] was 0.151 to 0.2; in the experiment on T-cell [3] it was 0.801 to 1; in the experiment with T-cell [4] it was 1.01 to 1.3; in the experiment with T-cell [6], 5 to 7.5. Further, the figures for the fold induction at 8 µM in the experiment with T-cell [1] and with T-cell [3] were above 0.201 and above 1, respectively. The concentration for half-maximal inhibition (IC50) on Cbl-b [2] is at most 100 nM; at Cbl-b [5], below 100 nM. Also, the fold induction at 0.3 µM in the experiment with T-cell [4] was 1.01 to 1.3; in the experiment with T-cell [6], 2.51 to 5. In addition, the fold induction at 4 µM in the experiment on T-cell [4] was 1.31 to 1.5; in the experiment on T-cell [6], above 7.5.
Regarding `Cn1cnnc1CC1(c2cccc(N3Cc4c(cc(CN5CC(C)(F)C5)cc4C(F)(F)F)C3=O)c2)COC1` [Compound 424, 6-((3-fluoro-3-methylazetidin-1-yl)methyl)-2-(3-(3-((4-methyl-4H-1,2,4-triazol-3-yl)methyl)oxetan-3-yl)phenyl)-4-(trifluoromethyl)isoindolin-1-one], the fold induction at 1 µM in the experiment with T-cell [1] is above 0.201; with T-cell [3] it was above 1; in the experiment with T-cell [4], 1.51 to 1.75; in the experiment with T-cell [6] it was above 7.5. For the same molecule, the fold induction at 8 µM in the experiment on T-cell [1] is above 0.201; with T-cell [3], above 1. The IC50 is at most 100 nM on Cbl-b [2] and below 100 nM on Cbl-b [5]. Also, the fold induction at 0.3 µM in the experiment on T-cell [4] was 1.31 to 1.5; with T-cell [6] it was above 7.5. Moreover, the fold induction at 4 µM with T-cell [4] is 1.51 to 1.75; with T-cell [6] it was above 7.5.
Regarding `Cn1cnnc1CC1(c2cccc(N3Cc4c(cc(CN5CC(C)(C#N)C5)cc4C(F)(F)F)C3=O)c2)COC1` [Compound 425, 3-methyl-1-((2-(3-(3-((4-methyl-4H-1,2,4-triazol-3-yl)methyl)oxetan-3-yl)phenyl)-3-oxo-7-(trifluoromethyl)isoindolin-5-yl)methyl)azetidine-3-carbonitrile], the fold induction at 1 µM is 0.151 to 0.2 in the experiment with T-cell [1], 0.601 to 0.8 with T-cell [3], 1.31 to 1.5 in the experiment on T-cell [4] and above 7.5 with T-cell [6]. Further, the fold induction at 8 µM is 0.051 to 0.1 with T-cell [1] and below 0.6 in the experiment with T-cell [3]. The concentration for half-maximal inhibition (IC50) at Cbl-b [2] is at most 100 nM; at Cbl-b [5] it was below 100 nM. In addition, the fold induction at 0.3 µM in the experiment on T-cell [4] lay within 1.01 to 1.3; in the experiment with T-cell [6], 2.51 to 5. The fold induction at 4 µM was 1.51 to 1.75 with T-cell [4] and above 7.5 in the experiment with T-cell [6].
With `Cn1cnnc1CC1(c2cccc(N3Cc4c(cc(CN5CCCC5=O)cc4C(F)(F)F)C3=O)c2)COC1` [Compound 426, 2-(3-(3-((4-methyl-4H-1,2,4-triazol-3-yl)methyl)oxetan-3-yl)phenyl)-6-((2-oxopyrrolidin-1-yl)methyl)-4-(trifluoromethyl)isoindolin-1-one], the fold induction at 1 µM in the experiment with T-cell [1] is 0.151 to 0.2; with T-cell [3] it was above 1; with T-cell [4] it was 1.01 to 1.3; in the experiment on T-cell [6] it was 1.01 to 2.5. Besides, the results for the fold induction at 8 µM in the experiment with T-cell [1] and with T-cell [3] were above 0.201 and above 1, respectively. In addition, the concentration for half-maximal inhibition (IC50) at Cbl-b [2] is at most 100 nM; at Cbl-b [5], below 100 nM. Besides, the fold induction at 0.3 µM in the experiment with T-cell [4] fell in the range of 1.01 to 1.3; with T-cell [6] it was 1.01 to 2.5. For the same molecule, the figures for the fold induction at 4 µM in the experiment with T-cell [4] and with T-cell [6] were 1.01 to 1.3 and 2.51 to 5, respectively.
Consider `C[C@H]1C=CCN1Cc1cc2c(c(C(F)(F)F)c1)CN(c1cccc(C3(Cc4nncn4C)COC3)c1)C2=O` [Compound 427], for which the fold induction at 1 µM in the experiment with T-cell [1] was above 0.201; with T-cell [3], above 1; in the experiment on T-cell [4], 1.51 to 1.75; with T-cell [6], above 7.5. Moreover, the figures for the fold induction at 8 µM with T-cell [1] and in the experiment with T-cell [3] were above 0.201 and above 1, respectively. Further, the concentration for half-maximal inhibition (IC50) on Cbl-b [2] was at most 100 nM; on Cbl-b [5] it was below 100 nM. For the same molecule, the fold induction at 0.3 µM is 1.31 to 1.5 in the experiment with T-cell [4] and above 7.5 in the experiment on T-cell [6]. The fold induction at 4 µM in the experiment on T-cell [4] is 1.51 to 1.75; with T-cell [6], above 7.5.
Consider `Cn1cnnc1CC1(c2cccc(N3Cc4c(cc(CN5CC(C(=O)O)C5)cc4C(F)(F)F)C3=O)c2)COC1` [Compound 428], for which the fold induction at 1 µM lay within 0.151 to 0.2 in the experiment with T-cell [1], 0.801 to 1 in the experiment on T-cell [3], 1.01 to 1.3 in the experiment on T-cell [4] and 1.01 to 2.5 in the experiment with T-cell [6]. Moreover, the values for the fold induction at 8 µM with T-cell [1] and in the experiment with T-cell [3] were above 0.201 and above 1, respectively. Moreover, the values for the IC50 on Cbl-b [2] and on Cbl-b [5] were at most 100 nM and below 100 nM, respectively. Also, the values for the fold induction at 0.3 µM in the experiment on T-cell [4] and in the experiment with T-cell [6] were 1.01 to 1.3 and 1.01 to 2.5, respectively. Further, the fold induction at 4 µM in the experiment on T-cell [4] was 1.01 to 1.3; in the experiment on T-cell [6], 1.01 to 2.5.
Regarding `CC(c1cc2c(c(C(F)(F)F)c1)CN(c1cccc(C3(Cc4nncn4C)COC3)c1)C2=O)N1CC(S(C)(=O)=O)C1` (stereo not drawn) [Compound 430, 2-(3-(3-((4-methyl-4H-1,2,4-triazol-3-yl)methyl)oxetan-3-yl)phenyl)-6-(l-(3-(methylsulfonyl)azetidin-1-yl)ethyl)-4-(trifluoromethyl)isoindolin-1-one], the fold induction at 1 µM in the experiment with T-cell [1] lay in the range of 0.101 to 0.15; in the experiment with T-cell [3], 0.601 to 0.8; with T-cell [4], 1.01 to 1.3; in the experiment on T-cell [6], 1.01 to 2.5. Further, the IC50 on Cbl-b [2] is at most 100 nM; at Cbl-b [5] it was below 100 nM. For the same molecule, the fold induction at 0.3 µM in the experiment on T-cell [4] fell in the range of 1.01 to 1.3; in the experiment on T-cell [6], 1.01 to 2.5.
As to `Cn1cnnc1CC1(c2cccc(N3Cc4c(cc(CN5CCOCC5)cc4C(F)(F)F)C3=O)c2)COC1` [Compound 431, 2-(3-{3-[(4-methyl-4H-1,2,4-triazol-3-yl)methyl]oxetan-3-yl}phenyl)-6-[(morpholin-4-yl)methyl]-4-(trifluoromethyl)-2,3-dihydro-1H-isoindol-1-one], the fold induction at 1 µM was above 0.201 with T-cell [1], above 1 in the experiment on T-cell [3], 1.31 to 1.5 in the experiment on T-cell [4] and above 7.5 in the experiment on T-cell [6]. Further, the figures for the 50% inhibitory concentration (IC50) on Cbl-b [2] and at Cbl-b [5] were at most 100 nM and below 100 nM, respectively. Moreover, the fold induction at 0.3 µM in the experiment on T-cell [4] was 1.31 to 1.5; in the experiment on T-cell [6] it was 2.51 to 5.
Take `Cn1cnnc1CC1(c2cccc(N3Cc4c(cc(CN5CCCC56COC6)cc4C(F)(F)F)C3=O)c2)COC1` [Compound 433, 2-(3-{3-[(4-methyl-4H-1,2,4-triazol-3-yl)methyl]oxetan-3-yl}phenyl)-6-({2-oxa-5-azaspiro[3,4]octan-5-yl}methyl)-4-(trifluoromethyl)-2,3-dihydro-1H-isoindol-1-one]: the fold induction at 1 µM in the experiment with T-cell [1] fell in the range of 0.151 to 0.2; with T-cell [3] it was 0.801 to 1; in the experiment on T-cell [4], 1.31 to 1.5; with T-cell [6], 5 to 7.5. Moreover, the values for the IC50 at Cbl-b [2] and at Cbl-b [5] were at most 100 nM and below 100 nM, respectively. Moreover, the fold induction at 0.3 µM in the experiment with T-cell [4] was in the range of 1.01 to 1.3; with T-cell [6] it was 1.01 to 2.5.
`Cn1cnnc1CC1(c2cccc(N3Cc4c(cc(CN5CCS(=O)(=O)CC5)cc4C(F)(F)F)C3=O)c2)COC1` [Compound 434, 4-{[2-(3-{3-[(4-methyl-4H-1,2,4-triazol-3-yl)methyl]oxetan-3-yl}phenyl)-3-oxo-7-(trifluoromethyl)-2,3-dihydro-1H-isoindol-5-yl]methyl}-1λ^6-thiomorpholine-1,1-dione]: the fold induction at 1 µM with T-cell [1] was 0.101 to 0.15; in the experiment with T-cell [3], above 1; in the experiment on T-cell [4], 1.01 to 1.3; with T-cell [6] it was 2.51 to 5. The half-maximal inhibitory concentration (IC50) is at most 100 nM on Cbl-b [2] and below 100 nM on Cbl-b [5]. Besides, the fold induction at 0.3 µM in the experiment with T-cell [4] was in the range of 1.01 to 1.3; in the experiment on T-cell [6], 2.51 to 5.

The values are drawn from patent US20220324835A1 (Nurix Therapeutics, Inc., priority 2018, published 2022).
